Measurements published in patent US11931324B2, “Pharmaceutical composition for prevention or treatment of osteoarthritis comprising obtusifolin, derivative thereof, or pharmaceutically acceptable salt thereof as active ingredient” (KOREA INSTITUTE OF SCIENCE AND TECHNOLOGY, priority 2021, dated 2024).

How the values were obtained:
[1] = test system: matrix metalloproteinase 13 (MMP13); assay: MMP13 expression in IL-1β-treated chondrocytes (RT-PCR, qRT-PCR); format: cell-based, mouse
Experimental: (§1) Interleukin 1 beta (IL-1β) purchased from GenScript (Piscataway, NJ, USA) was dissolved in purified water. Obtusifolin and celecoxib were purchased from Sigma-Aldrich (St. Louis, MO, USA). Primary chondrocytes of the mice were cultured for 4 days under conditions of a temperature of about 37° C. and about 5% CO2. Afterwards, IL-1β (about 1 ng/mL) and either of obtusifolin or celecoxib were treated and cultured for about 24 hours. Then, the cultured chondrocytes were collected after about 5 days. To confirm the signal transduction pathway regulated by obtusifolin, the chondrocytes were pre-treated with obtusifolin or celecoxib and cultured for about 24 hours. […]
(§2) Chondrocyte RNAs were isolated using Trizol and chloroform. […] Transcription levels were quantified by qRT-PCR (ABI, Beverley, UK; StepOnePlus Real-Time PCR System). […]
(§3) In detail, chondrocytes treated with pro-inflammatory cytokine, IL-1β (about 1 ng/mL), for about 24 hours were treated with obtusifolin (about 0 μM to about 200 μM) or Celecoxib (about 50 μM). Then, in the resulting chondrocytes, the expression levels of matrix metalloproteinase 3 (MMP3), matrix metalloproteinase 13 (MMP13), and cyclooxygenase 2 (COX2) were measured by RT-PCR and qRT-PCR. In addition, the activity level of collagenase and the expression level of prostaglandin (PGE2) were measured. […]

[2] = test system: collagenase; assay: total collagenase activity of IL-1β-treated chondrocytes (EnzCheck Gelatinase/Collagenase Assay kit); format: cell-based, mouse
Experimental: (§4) PGE2 production was evaluated using a PGE2 Immunoassay Kit (R & D System, Minneapolis, Minnesota, USA). Primary articular chondrocytes of mouse were seeded in a 96-well plate (about 2×10^4 cells/well). The level of secreted PGE2 in the primary chondrocytes of mouse treated with obtusifolin and IL-1β (about 1 ng/mL) was measured from the […]. By using an EnzCheck Gelatinase/Collagenase Assay kit (Molecular Probes, Carlsbad, CA, USA), total collagenase activity of the articular chondrocytes cultured in a medium conditioned with obtusifolin and IL-1β (about 1 ng/mL) was measured. The collagenase activity was quantified using a VICTOR X3 microplate reader (PerkinElmer, Waltham, MA, USA) at Ex/Em=490/530 nm according to the protocol provided by the manufacturer. […] After culturing the transfected cells in a complete medium for about 24 hours, luciferase activity was evaluated using an analysis kit (Promega, Madison, WI, USA), and the evaluated activity was normalized by β-galactosidase.
as §3, with “qRT-PCR.” for “qRT-PCR. In addition, the activity level of collagenase and the expression level of prostaglandin (PGE2) were measured.”

[3] = test system: cyclooxygenase 2 (COX2); assay: COX2 expression in IL-1β-treated chondrocytes (RT-PCR, qRT-PCR); format: cell-based, mouse
Experimental: as §1, §2, §3

[4] = test system: p65; assay: p65 phosphorylation (NF-κB signal transduction) in IL-1β-treated chondrocytes, Western blotting and densitometry; format: cell-based, mouse
Experimental: as §1, §2
Here, as a loading control group, Erk1/2 was used. Band intensity was quantified by densitometry (AlphaEase FC 4.0; Alpha Innotech).
In detail, the chondrocytes treated with the pro-inflammatory cytokine, IL-1β (about 1 ng/mL), were collected, and the phosphorylation levels of p38, JNK, and p65 were measured through Western blotting. […] The chondrocytes were collected after the culture, and the phosphorylation level of p65 was measured through Western blotting and densitometry. […]

[5] = test system: matrix metalloproteinase 3 (MMP3); assay: MMP3 expression in IL-1β-treated chondrocytes (RT-PCR, qRT-PCR); format: cell-based, mouse
Experimental: as §1, §2, §3

[6] = test system: primary chondrocytes; assay: lactate dehydrogenase (LDH) cytotoxicity assay; format: cell-based, mouse; conditions: 24 hours, concentration of about 200 μM or less (FIG. 1)
Experimental: (§5) Mouse chondrocytes isolated from femur and tibial plateau were obtained from ICR mice of 5-days old. Cells were cultured in Dulbecco's Modified Eagle's medium to which about 10% fetal bovine serum and about 1% penicillin/streptomycin, and then grown in an incubator under conditions maintained with about 5% CO2 and a temperature of about 37° C. C57BL/6 mice (male, 10-weeks old, weighing about 18 g to 20 g, and n=5) were purchased from DBL (Chungcheongbuk-do, South Korea). The C57BL/6 mice were housed at a temperature of about 23° C. and exposed to a light-dark cycle of about 12 hours. Food and water were provided regularly. All animal experiments were performed under the approval of the Ajou University Animal Care and Use Committee.
The primary chondrocytes were treated with obtusifolin (0 μM, about 25 μM, about 50 μM, about 100 μM, and about 200 μM) and cultured for about 24 hours. Then, the supernatant of the culture was collected and allowed for a reaction using a LDH-cytotoxicity assay kit (K311-400; BioVision). According to the recommendations provided by the kit manufacturer, values were measured.
In this experimental example, cytotoxicity of obtusifolin was measured using a lactate dehydrogenase-assay to determine whether obtusifolin affected chondrocytes. Detailed experimental methods were described in Reference Example.

[7] = test system: mice that have undergone DMM surgery; assay: cartilage destruction induced by DMM surgery, mouse model, oral administration; format: in vivo
Experimental: as §5
According to a known technique, destabilization of the medial meniscus (DMM) surgery was performed on a mouse of about 10 week old to induce OA. Here, a Sham-operated mouse was used as a control group. […]
A mouse cartilage sample obtained from the mouse undergoing the DMM surgery was fixed about 4% para-formaldehyde followed by dehydration for about 2 weeks in about 0.5 mol/L EDTA (pH 8.0), to decalcify. […] The cartilage destruction was measured by Safranin O staining and scored using an Osteoarthritis Research […] International (OARSI) grading system.
Data values were expressed as mean±SEM after repeated experiments. […] Histological data were quantified based on an ordinal grading system including OARSI grades, subchondral bone plate thickness scores, and osteophyte grades, using non-parametric statistical methods. […]
In detail, the DMM surgery or shame surgery was performed on mice, and after about 4 weeks of the surgery, obtusifolin (about 10 mg/kg, about 50 mg/kg, or about 100 mg/kg) was administered to each mouse every day for 6 weeks. […] The degree of cartilage destruction was analyzed by analyzing images obtained after the staining. In detail, the OARSI grades, the degree of osteophyte formation, and a thickness of the subchondral bone were measured. […]

[8] = test system: prostaglandin E2 (PGE2); assay: PGE2 production in IL-1β-treated chondrocytes (PGE2 Immunoassay Kit); format: cell-based, mouse
Experimental: as §4
as §3, with “qRT-PCR.” for “qRT-PCR. In addition, the activity level of collagenase and the expression level of prostaglandin (PGE2) were measured.”

[9] = chondrocytes treated with IL-1β (about 1 ng/mL), obtusifolin about 0 μM to about 200 μM (FIGS. 2A, 2B)
[10] = obtusifolin about 100 μM to about 200 μM vs Celecoxib about 50 μM
[11] = chondrocytes treated with IL-1β (about 1 ng/mL), obtusifolin about 0 μM to about 200 μM (FIG. 2C)

COc1c(O)c(C)cc2c1C(=O)c1c(O)cccc1C2=O [obtusifolin]
expression of MMP13 [1, 9]: decreased again | effect of reducing expression of MMP13 compared with Celecoxib [1, 10]: the same or similar level of effects as Celecoxib | activity of collagenase [2, 11]: decreased in a dose-dependent manner | effect of reducing activity of collagenase compared with Celecoxib [2, 10]: the same or similar level of effects as Celecoxib | expression level of COX2 [3, 9]: decreased in a dose-dependent manner | effect of reducing expression of COX2 compared with Celecoxib [3, 10]: the same or similar level of effects as Celecoxib | inhibition of phosphorylation of P65 compared with Celecoxib [4, 10]: the same or similar level to that of Celecoxib | phosphorylation of P65 ([4]; pre-treated 24 hours with obtusifolin about 0 μM to 200 μM, then IL-1β (about 1 ng/mL) 10 minutes, as concentration increased (FIGS. 3B, 3C)): the phosphorylation of P65 was inhibited | expression level of MMP3 [5, 9]: decreased in a dose-dependent manner | effect of reducing expression of MMP3 compared with Celecoxib [5, 10]: the same or similar level of effects as Celecoxib | cytotoxicity [6]: did not exhibit cytotoxicity | formation of osteophytes ([7]; DMM surgery mice, oral about 10, 50 or 100 mg/kg every day for 6 weeks (FIG. 5C)): reduced in a dose-dependent manner | degree of cartilage destruction (Safranin O staining) ([7]; DMM surgery mice, oral about 10, 50 or 100 mg/kg every day for 6 weeks from 4 weeks after surgery (FIG. 5A)): decreased in a dose-dependent manner | effects according to the dose concentration in sham surgery mice ([7]; sham surgery mice, oral about 10, 50 or 100 mg/kg every day for 6 weeks (FIGS. 5A to 5D)): no difference in the effects | expression of PGE2 [8, 11]: decreased in a dose-dependent manner | effect of reducing expression of PGE2 compared with Celecoxib [8, 10]: the same or similar level of effects as Celecoxib
